Experimental findings from patent publication US10570121B2, “Substituted dihydroisoquinolinone compounds” (priority 2014, dated 2020) are described below.

For one experiment, the target named is WT EZH2 (Homo sapiens (Human), UniProt Q15910). Nature of the experiment: WT EZH2 nucleosome assay (10X SAM, high SAM conditions). It counts as biochemical. Particulars: 15 uM SAM, Ki app from competitive inhibition fit, read-out: WT EZH2 Nucleosome assay (10X SAM) Ki.
The target of another experiment is EZH2 Mutant Y641N (Homo sapiens (Human), UniProt Q15910, Y641N). As to the kind of experiment: EZH2 Mutant Y641N nucleosome assay. Type of experiment: biochemical. Particulars: PRC2 4-protein complex 6 nM, 1.5 μM SAM, HeLa oligonucleosomes; read-out: EZH2 Mutant Y641N Nucleosome assay IC50.
EZH2 Mutant Y641N, sequence (Q15910 whole entry Y641N, looked up): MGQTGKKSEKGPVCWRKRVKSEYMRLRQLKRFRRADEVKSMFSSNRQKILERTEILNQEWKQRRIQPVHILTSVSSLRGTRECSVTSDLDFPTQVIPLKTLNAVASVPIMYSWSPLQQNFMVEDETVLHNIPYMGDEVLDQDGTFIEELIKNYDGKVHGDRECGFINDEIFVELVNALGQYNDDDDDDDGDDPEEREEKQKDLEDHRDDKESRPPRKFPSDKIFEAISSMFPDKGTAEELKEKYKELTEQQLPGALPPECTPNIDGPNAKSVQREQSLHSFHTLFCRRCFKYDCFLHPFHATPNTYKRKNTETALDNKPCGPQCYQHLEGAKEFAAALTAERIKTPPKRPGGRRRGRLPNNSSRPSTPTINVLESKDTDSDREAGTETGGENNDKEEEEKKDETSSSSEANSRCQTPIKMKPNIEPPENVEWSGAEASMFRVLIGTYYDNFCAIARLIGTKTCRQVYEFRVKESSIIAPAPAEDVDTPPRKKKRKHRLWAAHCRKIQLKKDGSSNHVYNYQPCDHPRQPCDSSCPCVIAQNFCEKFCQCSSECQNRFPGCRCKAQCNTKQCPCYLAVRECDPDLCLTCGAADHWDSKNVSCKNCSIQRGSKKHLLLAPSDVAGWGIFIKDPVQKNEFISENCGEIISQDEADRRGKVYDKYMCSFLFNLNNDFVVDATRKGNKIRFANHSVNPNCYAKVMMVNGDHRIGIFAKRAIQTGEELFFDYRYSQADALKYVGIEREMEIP
EZH2 Mutant Y641N, sequence (O75530 whole entry partner, looked up): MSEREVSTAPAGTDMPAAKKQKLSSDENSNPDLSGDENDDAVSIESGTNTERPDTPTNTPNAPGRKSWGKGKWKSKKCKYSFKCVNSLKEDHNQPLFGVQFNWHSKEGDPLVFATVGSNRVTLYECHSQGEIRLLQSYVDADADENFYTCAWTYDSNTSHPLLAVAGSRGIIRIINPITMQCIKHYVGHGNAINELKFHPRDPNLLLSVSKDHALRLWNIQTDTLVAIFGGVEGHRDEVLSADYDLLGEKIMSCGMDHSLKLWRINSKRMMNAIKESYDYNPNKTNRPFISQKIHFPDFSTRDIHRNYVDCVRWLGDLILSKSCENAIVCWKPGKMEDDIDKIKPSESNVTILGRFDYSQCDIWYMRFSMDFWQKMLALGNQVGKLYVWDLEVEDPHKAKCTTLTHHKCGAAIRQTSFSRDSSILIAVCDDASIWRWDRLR
EZH2 Mutant Y641N, sequence (Q15022 whole entry partner, looked up): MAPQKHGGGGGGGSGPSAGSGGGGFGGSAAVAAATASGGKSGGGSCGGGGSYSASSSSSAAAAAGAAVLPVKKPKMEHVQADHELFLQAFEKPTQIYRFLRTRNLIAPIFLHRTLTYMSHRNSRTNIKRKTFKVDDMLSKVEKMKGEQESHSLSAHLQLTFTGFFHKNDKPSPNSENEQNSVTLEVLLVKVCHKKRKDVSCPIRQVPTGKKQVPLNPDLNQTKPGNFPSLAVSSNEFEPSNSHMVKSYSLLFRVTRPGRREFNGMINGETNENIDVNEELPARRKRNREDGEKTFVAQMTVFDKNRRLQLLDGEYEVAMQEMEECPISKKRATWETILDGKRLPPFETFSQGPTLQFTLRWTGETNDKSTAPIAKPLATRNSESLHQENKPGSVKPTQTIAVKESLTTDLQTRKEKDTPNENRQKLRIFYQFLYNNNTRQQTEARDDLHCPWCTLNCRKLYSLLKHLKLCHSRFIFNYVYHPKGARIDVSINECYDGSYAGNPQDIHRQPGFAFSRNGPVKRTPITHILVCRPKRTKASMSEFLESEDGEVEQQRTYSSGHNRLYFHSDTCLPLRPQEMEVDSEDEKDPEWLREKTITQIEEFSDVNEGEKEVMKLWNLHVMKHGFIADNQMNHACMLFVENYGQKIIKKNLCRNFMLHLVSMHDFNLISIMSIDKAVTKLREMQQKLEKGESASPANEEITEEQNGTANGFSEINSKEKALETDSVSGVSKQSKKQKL
EZH2 Mutant Y641N, sequence (Q09028 whole entry partner, looked up): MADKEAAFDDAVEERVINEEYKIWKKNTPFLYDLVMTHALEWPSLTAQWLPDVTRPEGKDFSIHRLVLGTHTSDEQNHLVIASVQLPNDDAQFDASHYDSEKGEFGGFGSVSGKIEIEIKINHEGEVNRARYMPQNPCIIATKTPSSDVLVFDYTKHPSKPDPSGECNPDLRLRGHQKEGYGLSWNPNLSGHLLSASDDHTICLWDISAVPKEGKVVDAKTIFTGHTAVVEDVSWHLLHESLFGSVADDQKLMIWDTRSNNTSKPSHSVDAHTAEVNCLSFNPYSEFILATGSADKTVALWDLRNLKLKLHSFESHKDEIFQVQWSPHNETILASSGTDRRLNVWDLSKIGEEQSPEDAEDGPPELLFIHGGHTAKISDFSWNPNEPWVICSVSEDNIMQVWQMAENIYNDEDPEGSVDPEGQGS

WT EZH2, sequence (Q15910 whole entry, looked up): as the sequence (Q15910 whole entry Y641N, looked up) above, with N641Y counted along it
WT EZH2, sequence (O75530 whole entry partner, looked up): as the sequence (O75530 whole entry partner, looked up) above
WT EZH2, sequence (Q15022 whole entry partner, looked up): as the sequence (Q15022 whole entry partner, looked up) above
WT EZH2, sequence (Q09028 whole entry partner, looked up): as the sequence (Q09028 whole entry partner, looked up) above

On to `COC(c1cc(C)c2c(c1Cl)C(=O)N(Cc1c(C)cc(C)[nH]c1=O)CC2)C1CCN(C(=O)CO)CC1` (single isomer, unassigned) [Example 169], for which, at WT EZH2, the Ki amounted to 15.1 nM. For the same compound, the IC50 at EZH2 Mutant Y641N turned out to be 70 nM.
The corresponding values for `COC(c1cc(Cl)c2c(c1Cl)C(=O)N(Cc1c(C)cc(C)[nH]c1=O)CC2)C1CN(C(=O)[C@@H](C)O)C1` (single isomer, unassigned) [Example 170] are 0.8 nM and 14 nM.
Consider `COC(c1cc(Cl)c2c(c1Cl)C(=O)N(Cc1c(C)cc(C)[nH]c1=O)CC2)C1CN(C(=O)[C@@H](C)O)C1` (single isomer, unassigned) [Example 171], for which the Ki on WT EZH2 was determined as 328 nM. In addition, the IC50 at EZH2 Mutant Y641N turned out to be 2630 nM.
For the compound `COC(c1cc(Cl)c2c(c1Cl)C(=O)N(Cc1c(C)cc(C)[nH]c1=O)CC2)C1CN(C(=O)[C@H](C)O)C1` (single isomer, unassigned) [Example 172], the Ki on WT EZH2 came to 0.8 nM. Also, the IC50 on EZH2 Mutant Y641N stood at 12 nM.
Take `COC(c1cc(Cl)c2c(c1Cl)C(=O)N(Cc1c(C)cc(C)[nH]c1=O)CC2)C1CN(C(=O)[C@H](C)O)C1` (single isomer, unassigned) [Example 173]: the Ki at WT EZH2 was found to be 16 nM. Further, the IC50 on EZH2 Mutant Y641N came to 206 nM.
On the same counts, the results for `COC(c1cc(Cl)c2c(c1Cl)C(=O)N(Cc1c(C)cc(C)[nH]c1=O)CC2)C1CN(C)C1` (single isomer, unassigned) [Example 174] are 0.6 nM and 13 nM.
On the same counts, the results for `COC(c1cc(Cl)c2c(c1Cl)C(=O)N(Cc1c(C)cc(C)[nH]c1=O)CC2)C1CN(C)C1` (single isomer, unassigned) [Example 175] are 85 nM and 1000 nM.
Regarding `COC(c1cc(Cl)c2c(c1Cl)C(=O)N(Cc1c(C)cc(C)[nH]c1=O)CC2)C1CN(S(C)(=O)=O)C1` (single isomer, unassigned) [Example 176], at WT EZH2, the Ki stood at 0.3 nM. In addition, the IC50 at EZH2 Mutant Y641N came to 5 nM.
The corresponding values for `COC(c1cc(Cl)c2c(c1Cl)C(=O)N(Cc1c(C)cc(C)[nH]c1=O)CC2)C1CN(S(C)(=O)=O)C1` (single isomer, unassigned) [Example 177] are 49 nM and 282 nM.
On the same counts, the results for `COC(c1cc(Cl)c2c(c1Cl)C(=O)N(Cc1c(C)cc(C)[nH]c1=O)CC2)C1CC(=O)N(C)C1` (single isomer, unassigned) [Example 179] are 1 nM and 9 nM.
On the same counts, the results for `COC(c1cc(Cl)c2c(c1Cl)C(=O)N(Cc1c(C)cc(C)[nH]c1=O)CC2)C1CC(=O)N(C)C1` (single isomer, unassigned) [Example 180] are 390 nM and 2160 nM.
For `COC(c1cc(C)c2c(c1Cl)C(=O)N(Cc1c(C)cc(C)[nH]c1=O)CC2)C1CN(C2COC2)C1` (single isomer, unassigned) [Example 181], the Ki at WT EZH2 was 1 nM. Moreover, at EZH2 Mutant Y641N, the IC50 was determined as 41 nM.
The corresponding values for `COC(c1cc(C)c2c(c1Cl)C(=O)N(Cc1c(C)cc(C)[nH]c1=O)CC2)C1CN(C2COC2)C1` (single isomer, unassigned) [Example 182] are 2230 nM and 9150 nM.
On the same counts, the results for `Cc1cc(C)c(CN2CCc3c(Cl)cc(C(C)C4CN(C(=O)CO)C4)c(Cl)c3C2=O)c(=O)[nH]1` (single isomer, unassigned) [Example 183] are 56 nM and 517 nM.
On the same counts, the results for `Cc1cc(C)c(CN2CCc3c(Cl)cc(C(C)C4CN(C(=O)CO)C4)c(Cl)c3C2=O)c(=O)[nH]1` (single isomer, unassigned) [Example 184] are 0.6 nM and 5 nM.
Regarding `Cc1cc(C)c(CN2CCc3c(Cl)cc(C(C)C4CN(S(C)(=O)=O)C4)c(Cl)c3C2=O)c(=O)[nH]1` (single isomer, unassigned) [Example 185], the Ki on WT EZH2 is 1 nM. At EZH2 Mutant Y641N, the IC50 turned out to be 12 nM.
On the same counts, the results for `Cc1cc(C)c(CN2CCc3c(Cl)cc(C(C)C4CN(S(C)(=O)=O)C4)c(Cl)c3C2=O)c(=O)[nH]1` (single isomer, unassigned) [Example 186] are 14 nM and 240 nM.
For the compound `Cc1cc(C)c(CN2CCc3c(Cl)cc(C(C)C4CN(C)C4)c(Cl)c3C2=O)c(=O)[nH]1` (single isomer, unassigned) [Example 187], the Ki at WT EZH2 came out at 1 nM. Moreover, at EZH2 Mutant Y641N, the IC50 is 10 nM.
On the same counts, the results for `Cc1cc(C)c(CN2CCc3c(Cl)cc(C(C)C4CN(C)C4)c(Cl)c3C2=O)c(=O)[nH]1` (single isomer, unassigned) [Example 188] are 14 nM and 151 nM.
As to `Cc1cc(C)c(CN2CCc3c(Cl)cc(C(C)C4CNC4)c(Cl)c3C2=O)c(=O)[nH]1` (single isomer, unassigned) [Example 189], the Ki at WT EZH2 was 0.7 nM. Also, the IC50 at EZH2 Mutant Y641N worked out at 6 nM.
As for `Cc1cc(C)c(CN2CCc3c(Cl)cc(C(C)C4CNC4)c(Cl)c3C2=O)c(=O)[nH]1` (single isomer, unassigned) [Example 190], the Ki at WT EZH2 was 16 nM. At EZH2 Mutant Y641N, the IC50 is 100 nM.
In the case of `COc1cc(C)[nH]c(=O)c1CN1CCc2c(C)cc(C(C)C3CN(S(C)(=O)=O)C3)c(Cl)c2C1=O` (single isomer, unassigned) [Example 191], the Ki at WT EZH2 stood at 0.3 nM. Moreover, the IC50 on EZH2 Mutant Y641N is 5 nM.
On the same counts, the results for `COc1cc(C)[nH]c(=O)c1CN1CCc2c(C)cc(C(C)C3CN(S(C)(=O)=O)C3)c(Cl)c2C1=O` (single isomer, unassigned) [Example 192] are 117 nM and 605 nM.
On to `Cc1cc(C)c(CN2CCc3c(C)cc(C(C)C4CN(S(C)(=O)=O)C4)c(Cl)c3C2=O)c(=O)[nH]1` (single isomer, unassigned) [Example 193], for which, on WT EZH2, the Ki worked out at 1 nM. Also, the IC50 at EZH2 Mutant Y641N stood at 10 nM.
Consider `Cc1cc(C)c(CN2CCc3c(C)cc(C(C)C4CN(S(C)(=O)=O)C4)c(Cl)c3C2=O)c(=O)[nH]1` (single isomer, unassigned) [Example 194], for which the Ki on WT EZH2 is 44 nM. On EZH2 Mutant Y641N, the IC50 came out at 309 nM.
On the same counts, the results for `Cc1cc(C)c(CN2CCc3c(C)cc(C(C)C4COC4)c(Cl)c3C2=O)c(=O)[nH]1` (single isomer, unassigned) [Example 195] are 46 nM and 216 nM.
Take `Cc1cc(C)c(CN2CCc3c(C)cc(C(C)C4COC4)c(Cl)c3C2=O)c(=O)[nH]1` (single isomer, unassigned) [Example 196]: on WT EZH2, the Ki was determined as 0.2 nM. The IC50 on EZH2 Mutant Y641N came to 3 nM.
For the compound `COc1cc(C)[nH]c(=O)c1CN1CCc2c(C)cc(C(C)C3COC3)c(Cl)c2C1=O` (single isomer, unassigned) [Example 197], the Ki at WT EZH2 stood at 33 nM. The IC50 on EZH2 Mutant Y641N was determined as 62 nM.
With `COc1cc(C)[nH]c(=O)c1CN1CCc2c(C)cc(C(C)C3COC3)c(Cl)c2C1=O` (single isomer, unassigned) [Example 198], the Ki on WT EZH2 stood at 0.01 nM. In addition, the IC50 at EZH2 Mutant Y641N is 1 nM.
On the same counts, the results for `COc1cc(C)[nH]c(=O)c1CN1CCc2c(Cl)cc(C(C)C3CCN(C(=O)CO)CC3)c(Cl)c2C1=O` (single isomer, unassigned) [Example 200] are 0.1 nM and 2 nM.
In the case of `COc1cc(C)[nH]c(=O)c1CN1CCc2c(Cl)cc(C(C)C3CCN(C(=O)CO)CC3)c(Cl)c2C1=O` (single isomer, unassigned) [Example 201], the Ki on WT EZH2 stood at 7 nM. Moreover, at EZH2 Mutant Y641N, the IC50 stood at 37 nM.
On the same counts, the results for `COc1cc(C)[nH]c(=O)c1CN1CCc2c(Cl)cc(C(C3COC3)N(C)C)c(Cl)c2C1=O` (single isomer, unassigned) [Example 203] are 55 nM and 204 nM.
The corresponding values for `COc1cc(C)[nH]c(=O)c1CN1CCc2c(Cl)cc(C(C3COC3)N(C)C)c(Cl)c2C1=O` (single isomer, unassigned) [Example 204] are 2 nM and 62 nM.
On the same counts, the results for `Cc1cc(C)c(CN2CCc3c(Cl)cc(C(F)C4CCN(C(=O)CO)CC4)c(Cl)c3C2=O)c(=O)[nH]1` (single isomer, unassigned; (+)) [Example 8, (+)-5,8-dichloro-2-[(4,6-dimethyl-2-oxo-1,2-dihydropyridin-3-yl)methyl]-7-{fluoro[1-(hydroxyacetyl)piperidin-4-yl]methyl}-3,4-dihydroisoquinolin-1(2H)-one] are 652 nM and 5020 nM.
On to `Cc1cc(C)c(CN2CCc3c(Cl)cc(C(C)N4CCOCC4)c(Cl)c3C2=O)c(=O)[nH]1` (single isomer, unassigned; (+)) [Example 90, (+)-5,8-dichloro-2-[(4,6-dimethyl-2-oxo-1,2-dihydropyridin-3-yl)methyl]-7-[1-(morpholin-4-yl)ethyl]-3,4-dihydroisoquinolin-1(2H)-one], for which the Ki at WT EZH2 worked out at 459 nM. Also, the IC50 at EZH2 Mutant Y641N amounted to 5630 nM.
Take `Cc1cc(C)c(CN2CCc3c(Cl)cc(C(F)C4CCN(C(=O)CO)CC4)c(Cl)c3C2=O)c(=O)[nH]1` (single isomer, unassigned; (-)) [Example 9, (−)-5,8-dichloro-2-[(4,6-dimethyl-2-oxo-1,2-dihydropyridin-3-yl)methyl]-7-{fluoro[1-(hydroxyacetyl)piperidin-4-yl]methyl}-3,4-dihydroisoquinolin-1(2H)-one]: at WT EZH2, the Ki amounted to 5 nM. For the same compound, the IC50 on EZH2 Mutant Y641N came out at 35 nM.
Take `Cc1cc(C)c(CN2CCc3c(Cl)cc(C(C)N4CCOCC4)c(Cl)c3C2=O)c(=O)[nH]1` (single isomer, unassigned; (-)) [Example 91, (−)-5,8-dichloro-2-[(4,6-dimethyl-2-oxo-1,2-dihydropyridin-3-yl)methyl]-7-[1-(morpholin-4-yl)ethyl]-3,4-dihydroisoquinolin-1(2H)-one]: at WT EZH2, the Ki worked out at 1 nM. The IC50 on EZH2 Mutant Y641N was determined as 23 nM.
